Test results published in patent publication US12569534B2, “Therapeutic nanoparticles by coacervate complexation and their use for treating bacteria” (priority 2018, dated 2026).

Columns and labels:
CS release by dialysis = format: physicochemical; details: 50 k MWCO membrane, 37° C., pH 7.4 and pH 5.0
Experimental: CS release from the CS NPs was studied using a dialysis tube with 50 k MWCO membrane (Pur-A-Lyzer™ Maxi Dialysis Kit, Sigma-Aldrich) in 0.15 M phosphate buffer (pH 7.4) and in 0.15 M acetate buffer solution (pH 5.0). […] Samples were each placed into a dialysis tube at 37° C. under gentle stirring. At predetermined time points, the samples were collected and analyzed for CS content using HPLC.

A. baumannii = test: MIC/MBC broth microdilution, Example 1; format: cell-based, Acinetobacter baumannii; details: Example 1 CS NPs
Experimental: (§1) To evaluate antibacterial efficacy of the CS NPs, their minimum inhibitory concentration (MIC) and minimum bactericidal concentration (MBC) were assessed against 5 reference bacterial strains and 39 clinical isolates of carbapenem-resistant A. baumannii, P. aeruginosa, E. coli, and K. pneumoniae.
(§2) Reference bacterial stains were purchased from ATCC. Clinical isolates of carbapenem-resistant bacteria were obtained from National Health Research Institutes (NHRI) and Tri-Service General Hospital (TSGH). MIC is defined as the lowest concentration of antibiotics required to inhibit the growth of bacteria. MBC is defined as the lowest concentration of antibiotics required to eradicate microorganisms. The MICs of CS and the CS NPs were determined using a broth microdilution method. Bacterial suspensions were adjusted to a turbidity of McFarland 0.5±0.05 and cultured overnight with different concentrations of CS or CS NPs. A control group without antimicrobial treatment was prepared as a reference. Following overnight incubation, solution turbidity was determined by visual inspection. Culture wells with no observable turbidity were further sub-cultured for MBC evaluation. Solutions from the clear wells were deposited onto an agar plate and cultured overnight to determine the MBCs.

K. pneumoniae [1] = test: MIC/MBC broth microdilution, Example 2; format: cell-based, Klebsiella pneumoniae; details: Example 2 CS NPs
Experimental: as §2
(§3) To evaluate the antibacterial efficacy of the CS NPs of this study, their MIC and MBC were assessed against 5 reference bacterial strains and 20 clinical isolates of carbapenem-resistant A. baumannii, E. coli, K. pneumoniae, and P. aeruginosa according to the procedures set forth in EXAMPLE 1. Reference bacterial stains were purchased from ATCC. Carbapenem-resistant clinical isolated were obtained from NHRI.

K. pneumoniae [2] = test: MIC/MBC broth microdilution, Example 1; format: cell-based, Klebsiella pneumoniae; details: Example 1 CS NPs
Experimental: as §1, §2

[3] = tested on: K. pneumoniae NHRI 1 isolate; test: Mouse survival model of K. pneumoniae infection; format: in vivo; details: neutropenic Balb/c mice, lethal i.p. infection; 5 mg/kg CS or 20 mg/kg CS NPs (50% MTD) 5 hours post-infection
Experimental: 3 days and 1 day before infection, the mice were injected intraperitoneally with 150 and 100 mg/kg of cyclophosphamide, respectively, to induce neutropenia. K. pneumoniae NHRI 1 isolate was grown in 60 mL Mueller Hinton broth at 150 rpm (orbital shaker, Yihder TS-580) for 2.5 hours at 37° C. to reach the mid-logarithmic phase. The bacteria were then collected at 10,000×g for 10 minutes at 4° C. The bacterial pellet was resuspended in PBS. To induce K. pneumoniae intraperitoneal infection with a lethal bacterial dose, mice were infected with 1.5×10^8 CFU/mouse in […] via intraperitoneal injection. 5 hours post-infection, the infected mice were treated with 5 mg/kg CS (50% MTD), 20 mg/kg CS NPs (50% MTD), or PBS as a control.

P. aeruginosa = test: MIC/MBC broth microdilution, Example 2; format: cell-based, Pseudomonas aeruginosa; details: Example 2 CS NPs
Experimental: as §2, §3

[4] = mouse, in vivo, iv, 4 mg/kg
Experimental: A group of mice were injected intravenously with sterile PBS through the tail vein as negative control. 24 hours after the last treatment, 0.5 mL of blood was collected from the animals for comprehensive metabolic panel analysis. The data was analyzed by Student's t-test followed by Dunnett's multiple comparison tests using GraphPad Prism (GraphPad Software, San Diego, CA). p values smaller than 0.05 were considered significant.

[5] = clinical carbapenem-resistant A. baumannii NHRI 1
[6] = clinical carbapenem-resistant A. baumannii NHRI 2
[7] = clinical carbapenem-resistant A. baumannii NHRI 3
[8] = clinical carbapenem-resistant A. baumannii NHRI 4
[9] = clinical carbapenem-resistant A. baumannii NHRI 5
[10] = reference strain A. baumannii 15151
[11] = reference strain A. baumannii 17978
[12] = reference strain A. baumannii 19606
[13] = clinical carbapenem-resistant isolate K. pneumoniae NHRI 1
[14] = clinical carbapenem-resistant isolate K. pneumoniae NHRI 2
[15] = clinical carbapenem-resistant isolate K. pneumoniae NHRI 3
[16] = clinical carbapenem-resistant isolate K. pneumoniae NHRI 4
[17] = clinical carbapenem-resistant isolate K. pneumoniae NHRI 5
[18] = clinical carbapenem-resistant K. pneumoniae NHRI 1
[19] = clinical carbapenem-resistant K. pneumoniae NHRI 2
[20] = clinical carbapenem-resistant K. pneumoniae NHRI 4
[21] = clinical carbapenem-resistant K. pneumoniae NHRI 5
[22] = clinical carbapenem-resistant K. pneumoniae TSGH 1
[23] = clinical carbapenem-resistant K. pneumoniae TSGH 3
[24] = clinical carbapenem-resistant K. pneumoniae TSGH 5
[25] = clinical carbapenem-resistant K. pneumoniae TSGH 7
[26] = clinical carbapenem-resistant K. pneumoniae TSGH 9
[27] = clinical carbapenem-resistant K. pneumoniae TSGH 11
[28] = clinical carbapenem-resistant K. pneumoniae TSGH 13
[29] = clinical carbapenem-resistant K. pneumoniae TSGH 15
[30] = clinical carbapenem-resistant K. pneumoniae TSGH 16
[31] = clinical carbapenem-resistant K. pneumoniae TSGH 17
[32] = clinical carbapenem-resistant K. pneumoniae TSGH 18
[33] = clinical carbapenem-resistant K. pneumoniae TSGH 19
[34] = clinical carbapenem-resistant isolate P. aeruginosa NHRI 1
[35] = clinical carbapenem-resistant isolate P. aeruginosa NHRI 2
[36] = clinical carbapenem-resistant isolate P. aeruginosa NHRI 3
[37] = clinical carbapenem-resistant isolate P. aeruginosa NHRI 4
[38] = clinical carbapenem-resistant isolate P. aeruginosa NHRI 5
[39] = reference strain P. aeruginosa 27853

In the case of colistin [CS], the “release profile in dialysis” value (CS release by dialysis) is reported as “rapidly dialyzed from the setup”, the MBC (A. baumannii; [5]) is reported as 2 µg/mL and the MIC (A. baumannii; [5]) is reported as 1 µg/mL. For the same substance, the MBC (A. baumannii; [6]) was 2 µg/mL, the MIC (A. baumannii; [6]) was 1 µg/mL and the MBC (A. baumannii; [7]) was 1 µg/mL. It also gave an MIC (A. baumannii; [7]) of 1 µg/mL, an MBC (A. baumannii; [8]) of 2 µg/mL and an MIC (A. baumannii; [8]) of 1 µg/mL. For the same substance, the MBC (A. baumannii; [9]) was 1 µg/mL, the MIC (A. baumannii; [9]) was 1 µg/mL and the MBC (A. baumannii; [10]) was 1 µg/mL. It also gave an MIC (A. baumannii; [10]) of 1 µg/mL, an MBC (A. baumannii; [11]) of 1 µg/mL and an MIC (A. baumannii; [11]) of 1 µg/mL. It also gave an MBC (A. baumannii; [12]) of 1 µg/mL, an MIC (A. baumannii; [12]) of 1 µg/mL and an MBC (K. pneumoniae [1]; [13]) of 4 µg/mL. For the same substance, the MIC (K. pneumoniae [1]; [13]) was 1 µg/mL, the MBC (K. pneumoniae [1]; [14]) was 1 µg/mL and the MIC (K. pneumoniae [1]; [14]) was 1 µg/mL. It also gave an MBC (K. pneumoniae [1]; [15]) of 2 µg/mL, an MIC (K. pneumoniae [1]; [15]) of 1 µg/mL and an MBC (K. pneumoniae [1]; [16]) of 2 µg/mL. For the same substance, the MIC (K. pneumoniae [1]; [16]) was 2 µg/mL, the MBC (K. pneumoniae [1]; [17]) was 4 µg/mL and the MIC (K. pneumoniae [1]; [17]) was 1 µg/mL. The MBC (K. pneumoniae [2]; [18]) was 4 µg/mL, the MIC (K. pneumoniae [2]; [18]) was 2 µg/mL and the MBC (K. pneumoniae [2]; [19]) was 2 µg/mL. The MIC (K. pneumoniae [2]; [19]) was 2 µg/mL, the MBC (K. pneumoniae [2]; [20]) was 2 µg/mL and the MIC (K. pneumoniae [2]; [20]) was 2 µg/mL. The MBC (K. pneumoniae [2]; [21]) was 2 µg/mL, the MIC (K. pneumoniae [2]; [21]) was 2 µg/mL and the MBC (K. pneumoniae [2]; [22]) was 2 µg/mL. For the same substance, the MIC (K. pneumoniae [2]; [22]) was 2 µg/mL, the MBC (K. pneumoniae [2]; [23]) was 1 µg/mL and the MIC (K. pneumoniae [2]; [23]) was 1 µg/mL. It also gave an MBC (K. pneumoniae [2]; [24]) of 1 µg/mL, an MIC (K. pneumoniae [2]; [24]) of 1 µg/mL and an MBC (K. pneumoniae [2]; [25]) of 1 µg/mL. It also gave an MIC (K. pneumoniae [2]; [25]) of 1 µg/mL, an MBC (K. pneumoniae [2]; [26]) of 2 µg/mL and an MIC (K. pneumoniae [2]; [26]) of 1 µg/mL. The MBC (K. pneumoniae [2]; [27]) was 4 µg/mL, the MIC (K. pneumoniae [2]; [27]) was 4 µg/mL and the MBC (K. pneumoniae [2]; [28]) was 2 µg/mL. For the same substance, the MIC (K. pneumoniae [2]; [28]) was 1 µg/mL, the MBC (K. pneumoniae [2]; [29]) was 1 µg/mL and the MIC (K. pneumoniae [2]; [29]) was 1 µg/mL. The MBC (K. pneumoniae [2]; [30]) was 2 µg/mL, the MIC (K. pneumoniae [2]; [30]) was 2 µg/mL and the MBC (K. pneumoniae [2]; [31]) was 1 µg/mL. For the same substance, the MIC (K. pneumoniae [2]; [31]) was 1 µg/mL, the MBC (K. pneumoniae [2]; [32]) was 1 µg/mL and the MIC (K. pneumoniae [2]; [32]) was 1 µg/mL. For the same substance, the MBC (K. pneumoniae [2]; [33]) was 4 µg/mL, the MIC (K. pneumoniae [2]; [33]) was 1 µg/mL and the mice survival rate [3] was “did not improve survival”. For the same substance, the MBC (P. aeruginosa; [34]) was 4 µg/mL, the MIC (P. aeruginosa; [34]) was 1 µg/mL and the MBC (P. aeruginosa; [35]) was 4 µg/mL. It also gave an MIC (P. aeruginosa; [35]) of 2 µg/mL, an MBC (P. aeruginosa; [36]) of 4 µg/mL and an MIC (P. aeruginosa; [36]) of 1 µg/mL. For the same substance, the MBC (P. aeruginosa; [37]) was 4 µg/mL, the MIC (P. aeruginosa; [37]) was 2 µg/mL and the MBC (P. aeruginosa; [38]) was 4 µg/mL. The MIC (P. aeruginosa; [38]) was 1 µg/mL, the MBC (P. aeruginosa; [39]) was 2 µg/mL and the MIC (P. aeruginosa; [39]) was 1 µg/mL. The “other parameters in the comprehensive metabolic panel” value [4] was “neither CS nor the CS NPs induced any notable changes”.
